Reference: patent US20160108008A1, “Substituted N-(Tetrazol-5-yl)- and N-(Triazol-5-yl)arylcarboxamide Compounds and Their Use as Herbicides” (BASF SE, priority 2013, published 2016)
Marks after values point to notes of the source that are not given here.

Legend:
Assay type in all cases: in vivo
[1] = tested on: Chenopodium album; assay: greenhouse post-emergence treatment, CHEAL; details: scale 0-100
Source text: (§1) The culture containers used were plastic flowerpots containing loamy sand with approximately 3.0% of humus as the substrate. The seeds of the test plants were sown separately for each species.
(§2) For the post-emergence treatment, the test plants were first grown to a height of 3 to 15 cm, depending on the plant habit, and only then treated with the active ingredients which had been suspended or emulsified in water. For this purpose, the test plants were either sown directly and grown in the same containers, or they were first grown separately as seedlings and transplanted into the test containers a few days prior to treatment.
(§3) Depending on the species, the plants were kept at 10-25° C. or 20-35° C. The test period extended over 2 to 4 weeks. During this time, the plants were tended, and their response to the individual treatments was evaluated.
(§4) Evaluation was carried out using a scale from 0 to 100. 100 means no emergence of the plants, or complete destruction of at least the aerial moieties, and 0 means no damage, or normal course of growth. A good herbicidal activity is given at values of at least 70 and a very good herbicidal activity is given at values of at least 85.
(§5) The plants used in the greenhouse experiments belonged to the following species:
(§6) Following representative compounds of formula I according to Table 9 were used in post-emergence treatments in greenhouse experiments (values labeled with * result from pre-emergence experiments): […]

[2] = tested on: Polygonum convolvulus; assay: greenhouse post-emergence treatment, POLCO; details: scale 0-100
Source text: as §1, §2, §3, §4, §5, §6

[3] = tested on: Amaranthus retroflexus; assay: greenhouse post-emergence treatment, AMARE; details: scale 0-100
Source text: as §1, §2, §3, §4, §5, §6

[4] = tested on: Amaranthus retroflexus; assay: greenhouse pre-emergence treatment, AMARE; details: pre-emergence (value labeled *), scale 0-100
Source text: as §1
(§7) For the pre-emergence treatment, the active ingredients, which had been suspended or emulsified in water, were applied directly after sowing by means of finely distributing nozzles. The containers were irrigated gently to promote germination and growth and subsequently covered with transparent plastic hoods until the plants had rooted. This cover caused uniform germination of the test plants, unless this has been impaired by the active ingredients.
as §3, §4, §5, §6

[5] = tested on: Abutilon theophrasti; assay: greenhouse pre-emergence treatment, ABUTH; details: pre-emergence (value labeled *), scale 0-100
Source text: as §1, §7, §3, §4, §5, §6

[6] = tested on: Agrostis spica-venti; assay: greenhouse pre-emergence treatment, APESV; details: pre-emergence (value labeled *), scale 0-100
Source text: as §1, §7, §3, §4, §5, §6

[7] = tested on: Echinochloa crus-galli; assay: greenhouse post-emergence treatment, ECHCG; details: scale 0-100
Source text: as §1, §2, §3, §4, §5, §6

Q: Which “[%] damage to weed VI (CHEAL)” value ([1]; 250 g/ha) does the source give for `Cc1c(C(=O)Nc2ncnn2C)cc(F)cc1S(C)(=O)=O` [compound 10] here?
A: 100%

Q: What about the “[%] damage to weed IX (POLCO)” value ([2]; 250 g/ha) of the same compound?
A: 100%

Q: And the “[%] damage to weed III (AMARE)” value ([3]; 250 g/ha)?
A: 100; %

Q: And the “[%] damage to weed III (AMARE)” value ([4]; 250 g/ha)?
A: 95* %

Q: Which results are given for `CCSc1c(Cl)cc(F)c(C(=O)Nc2ncnn2C)c1Cl` [compound 11]?
A: [%] damage to weed VI (CHEAL) ([1]; 250 g/ha): 100%; [%] damage to weed IX (POLCO) ([2]; 250 g/ha): 100%; [%] damage to weed I (ABUTH) ([5]; 250 g/ha): 100* %; [%] damage to weed III (AMARE) ([3]; 250 g/ha): 100%

Q: What does the source list for `CCSc1c(Cl)cc(F)c(C(=O)Nc2nnnn2C)c1Cl` [compound 12, 2,4-dichloro-3-ethylsulfanyl-6-fluoro-N-(1-methyltetrazol-5-yl)benzamide]?
A: [%] damage to weed VI (CHEAL) ([1]; 250 g/ha): 100%; [%] damage to weed IX (POLCO) ([2]; 250 g/ha): 100%; [%] damage to weed I (ABUTH) ([5]; 250 g/ha): 100* %; [%] damage to weed III (AMARE) ([3]; 250 g/ha): 100%

Q: For `CCS(=O)(=O)c1c(Cl)cc(F)c(C(=O)Nc2nnnn2C)c1Cl` [compound 13, 2,4-Dichloro-3-ethylsulfonyl-6-fluoro-N-(1-methyltetrazol-5-yl)benzamide], which “[%] damage to weed VI (CHEAL)” value ([1]; 250 g/ha) is on record?
A: 100%

Q: What about the “[%] damage to weed IX (POLCO)” value ([2]; 250 g/ha) of the same compound?
A: 100%

Q: What about the “[%] damage to weed I (ABUTH)” value ([5]; 250 g/ha) of the same compound?
A: 100* %

Q: And the “[%] damage to weed III (AMARE)” value ([3]; 250 g/ha)?
A: 100%

Q: What does the source list for `CC[S+]([O-])c1c(Cl)cc(F)c(C(=O)Nc2ncnn2C)c1Cl` (stereo not shown) [compound 14]?
A: [%] damage to weed VI (CHEAL) ([1]; 250 g/ha): 100%; [%] damage to weed IX (POLCO) ([2]; 250 g/ha): 100%; [%] damage to weed I (ABUTH) ([5]; 250 g/ha): 100* %; [%] damage to weed III (AMARE) ([3]; 250 g/ha): 100%

Q: `CCS(=O)(=O)c1c(Cl)cc(F)c(C(=O)Nc2ncnn2C)c1Cl` [compound 15] was tested. Which “[%] damage to weed VI (CHEAL)” value ([1]; 500 g/ha) did it give?
A: 100%

Q: And the “[%] damage to weed IX (POLCO)” value ([2]; 500 g/ha)?
A: 98%

Q: What about the “[%] damage to weed III (AMARE)” value ([3]; 500 g/ha) of the same compound?
A: 100%

Q: What about the “[%] damage to weed IV (APESV)” value ([6]; 500 g/ha) of the same compound?
A: 98* %

Q: Which results are given for `CC[S+]([O-])c1c(Cl)cc(F)c(C(=O)Nc2nnnn2C)c1Cl` (stereo not shown) [compound 16, 2,4-Dichloro-3-ethylsulfinyl-6-fluoro-N-(1-methyltetrazol-5-yl)benzamide]?
A: [%] damage to weed VI (CHEAL) ([1]; 250 g/ha): 100%; [%] damage to weed IX (POLCO) ([2]; 250 g/ha): 100%; [%] damage to weed I (ABUTH) ([5]; 250 g/ha): 100* %; [%] damage to weed III (AMARE) ([3]; 250 g/ha): 100%

Q: For `CCSc1c(Cl)cc(Cl)c(C(=O)Nc2ncnn2C)c1Cl` [compound 61], which “[%] damage to weed VI (CHEAL)” value ([1]; 500 g/ha) is on record?
A: 100%

Q: And the “[%] damage to weed VII (ECHCG)” value ([7]; 500 g/ha)?
A: 98%

Q: And the “[%] damage to weed III (AMARE)” value ([3]; 500 g/ha)?
A: 100%

Q: What about the “[%] damage to weed IV (APESV)” value ([6]; 500 g/ha) of the same compound?
A: 98* %

Q: For `CCCn1ncnc1NC(=O)c1c(F)cc(Cl)c(SC)c1Cl` [compound 62], which “[%] damage to weed VI (CHEAL)” value ([1]; 250 g/ha) is on record?
A: 100%

Q: And the “[%] damage to weed VII (ECHCG)” value ([7]; 250 g/ha)?
A: 98%

Q: And the “[%] damage to weed III (AMARE)” value ([3]; 250 g/ha)?
A: 100%

Q: And the “[%] damage to weed IV (APESV)” value ([6]; 250 g/ha)?
A: 80* %

Q: Which results are given for `CCOc1c(Cl)cc(F)c(C(=O)Nc2nnnn2CC)c1Cl` [compound 63]?
A: [%] damage to weed VI (CHEAL) ([1]; 500 g/ha): 100%; [%] damage to weed IX (POLCO) ([2]; 500 g/ha): 98%; [%] damage to weed III (AMARE) ([3]; 500 g/ha): 100; %; [%] damage to weed III (AMARE) ([4]; 500 g/ha): 100* %

Q: How did the “[%] damage to weed VI (CHEAL)” value ([1]; 250 g/ha) turn out when `COCCOc1c(Cl)cc(F)c(C(=O)Nc2ncnn2C)c1Cl` [compound 69] was run?
A: 100%

Q: What about the “[%] damage to weed IX (POLCO)” value ([2]; 250 g/ha) of the same compound?
A: 98%

Q: And the “[%] damage to weed I (ABUTH)” value ([5]; 250 g/ha)?
A: 100* %

Q: And the “[%] damage to weed III (AMARE)” value ([3]; 250 g/ha)?
A: 98%

Q: How did the “[%] damage to weed VI (CHEAL)” value ([1]; 125 g/ha) turn out when `CCS(=O)(=O)c1c(Cl)cc(F)c(C(=O)Nc2nnnn2CCOC)c1Cl` [compound 80] was run?
A: 100%

Q: And the “[%] damage to weed VII (ECHCG)” value ([7]; 125 g/ha)?
A: 100%

Q: And the “[%] damage to weed I (ABUTH)” value ([5]; 125 g/ha)?
A: 100* %

Q: What about the “[%] damage to weed III (AMARE)” value ([3]; 125 g/ha) of the same compound?
A: 100%

Q: What does the source list for `CSc1ccc(Cl)c(C(=O)Nc2ncnn2C)c1Cl` [compound 81]?
A: [%] damage to weed VI (CHEAL) ([1]; 250 g/ha): 100%; [%] damage to weed VII (ECHCG) ([7]; 250 g/ha): 98%; [%] damage to weed III (AMARE) ([3]; 250 g/ha): 100%; [%] damage to weed IV (APESV) ([6]; 250 g/ha): 95* %

Q: How did the “[%] damage to weed VI (CHEAL)” value ([1]; 500 g/ha) turn out when `COCCOc1ccc(Cl)c(C(=O)Nc2nnnn2C)c1Cl` [compound 86] was run?
A: 100%

Q: What about the “[%] damage to weed VII (ECHCG)” value ([7]; 500 g/ha) of the same compound?
A: 98%

Q: And the “[%] damage to weed I (ABUTH)” value ([5]; 500 g/ha)?
A: 65* %

Q: What about the “[%] damage to weed III (AMARE)” value ([3]; 500 g/ha) of the same compound?
A: 100%

Q: What about the “[%] damage to weed IV (APESV)” value ([6]; 500 g/ha) of the same compound?
A: 98* %

Q: Which results are given for `CSc1c(F)cc(Cl)c(C(=O)Nc2ncnn2C)c1F` [compound 94]?
A: [%] damage to weed VI (CHEAL) ([1]; 250 g/ha): 100%; [%] damage to weed VII (ECHCG) ([7]; 250 g/ha): 95%; [%] damage to weed III (AMARE) ([3]; 250 g/ha): 100%; [%] damage to weed IV (APESV) ([6]; 250 g/ha): 90* %
